The subject of assay [1] is TGFβ-induced subcapsular cataract formation. Kind of assay: Subcapsular plaque/opacity formation in cultured rat lenses (photography). The class given is cell-based. The following applies: 6 days. The protocol: The previously established TGFβ-induced rat lens model was utilized for these studies. Briefly, lenses were obtained from adult male Wistar rats and cultured in 3.5 ml of serum free M199 medium supplemented with 50 IU/ml penicillin, 50 μg/ml streptomycin and 2.5 μg/ml fungizone (Amersham Biosciences) overnight. […] Some lenses were co-treated with TGFβ2 and the […], GM6001 (liomastat) (Chemicon International) at concentrations ranging from 10 to 25 μM or the MMP-2-9 inhibitor ((2R)-[(4-Biphenylylsulfonyl)amino]-N-hydroxyl-3-phenylpropionamide) (Chemicon) concentrations of either 10 and 25 μM. The GM6001 negative control (N-t-Butoxycarbonyl-L-leucyl-L-tryptophan Methylamide) (Calbiochem) (25 μM) was also employed. Lenses were then harvested at subsequent time-points of 2, 4 or 6 days and then photographed using a digital camera mounted to a dissecting scope. The lenses were then fixed for histology and immunofluorescence, or used for optical analysis. The conditioned media was also collected from each treatment group for zymography and western blot analysis.
The MMP inhibitor GM6001 was employed in the rat subcapsular cataract model in order to determine whether it could effectively suppress TGFβ-induced subcapsular cataract formation. To carry out these experiments, excised rat lenses were treated with exogenous TGFβ for a period of 6 days. […]

For assay [2], the system named is alpha smooth muscle actin (α-SMA). In words: Immunofluorescent localization of αSMA in lens cross-sections. It counts as cell-based, rat. Conditions: co-cultured with TGFβ 2 ng/ml, 6 days.
Description: Lenses were collected from different treatment groups and fixed overnight in 1:99 acetic acid: ethanol solution, dehydrated, embedded in paraffin, and processed for routine histology. For histological analysis, 5 μm sections were stained with hematoxylin and eosin. Immunofluorescence was performed on 5 μm thick paraffin-embedded sections. Sections were incubated with primary antibody specific for alpha smooth muscle actin (α-SMA, 1:100, Sigma) and bound primary antibodies were visualized with a fluorescein-isothiocyanate (FITC) anti-mouse secondary antibody, (1:50, Jackson ImmunoResearch Laboratories). All sections were mounted in Vectasheild mounting medium with 4′,6-Diaminodino-2-Phenylindol (DAPI, Vector Laboratories) to visualize the nuclei.
To carry out these experiments, excised rat lenses were treated with exogenous TGFβ for a period of 6 days. An untreated control lens (A), a lens treated with TGF-β (2 ng/mL) (B), a lens co-cultured with TGFβ (2 ng/mL) and GM6001 (25 μM) (C) and a lens co-cultured with TGF-β and MMPI-2/9 (2 umol/L) (D) are shown following 6 days of culture.
The subject of assay [3] is MMPs with gelatinolytic activity (MMP-2, MMP-9). In words: Gelatin zymography of lens conditioned media. It counts as cell-based, rat. Conditions: co-treated with TGFβ, 6 day time point, relative to TGFβ treated lenses.
Description: An equal volume of each concentrate was electrophoresed on 10% SDS-polyacrylamide gels containing either 1 mg/ml gelatin or 2% beta-casein at a final concentration of 0.1% as the substrate. Following electrophoresis the gels were developed as described previously and stained in 0.5% coomassie brilliant blue for 1 hr followed by destaining with 10% iso-propanol. Sites of gelatinase or caseinase activity were detected as clear bands against a background of uniform staining, which was digitally photographed.
To examine the timing and level of induction of MMPs In subcapsular cataract formation zymography was performed on conditioned media of lenses from three different treatment groups (control, TGFβ, TGFβ plus GM6001 (25 μM)) and TGFβ plus MMPI-2/9 at the 6 day time point.
The subject of the next assay is MMP-2. Kind of assay: Western blot of conditioned media for MMP-2. It counts as cell-based, rat. Conditions: co-cultured with TGFβ. The protocol: (§1) To confirm the identity of the specific MMPs corresponding to the gelatinolytic bands in the zymograms and quantitate their levels over the 6 day time period, concentrated conditioned media from the treatment groups, control, TGFβ, TGFβ plus GM6001 (25 μM) and TGFβ plus MMPI-2/9, from three treatment times days 2, 4 and […], was subjected to western blot analysis using antibodies specific for both MMP-2 and MMP-9. Equal volumes of sample were electrophoresed on a 10% SDS-polyacrylamide gel. The resolved bands were electro-transferred onto a nitrocellulose membrane (Pall Corporation). Membranes were blocked with 5% skimmed milk powder in Tris-buffered saline (50 mM Tris base, NaCl pH 8.5) and 0.1% Tween-20 and then incubated overnight at 4° C. with a polyclonal antibody generated against MMP-9 (1:500; Chemicon International) or MMP-2 (1:500:Chemicon International) or E-adherin (1:1500; ED Transduction Laboratories).
Following this incubation, membranes were probed with an HRP-conjugated secondary antibody (1:7500;Amersham Biosciences) and ECL detection reagents (Amersham Biosciences). The western blots were scanned by a densitometer and analyzed by image quantification software (ImageJ, NIH, USA). […] Quantitative data were analyzed statistically using a student's t-test and expressed as ± standard deviation. […]
On the technique in general: Immunoblotting shows a protein as a band on a membrane.

The next assay deals with MMP-9. In words: Western blot of conditioned media for MMP-9 with densitometry. It counts as cell-based, rat. Conditions: for MMP-9 protein in conditioned media (western blot, densitometry), FIG. 5B,C: co-treated with TGFβ 2 ng/ml, compared with TGFβ alone. As to the method:
Equal volumes of sample were electrophoresed on a 10% SDS-polyacrylamide gel. The resolved bands were electro-transferred onto a nitrocellulose membrane (Pall Corporation). Membranes were blocked with 5% skimmed milk powder in Tris-buffered saline (50 mM Tris base, NaCl pH 8.5) and 0.1% Tween-20 and then incubated overnight at 4° C. with a polyclonal antibody generated against MMP-9 (1:500; Chemicon International) or MMP-2 (1:500:Chemicon International) or E-adherin (1:1500; ED Transduction Laboratories).
Following this incubation, membranes were probed with an HRP-conjugated secondary antibody (1:7500;Amersham Biosciences) and ECL detection reagents (Amersham Biosciences). The western blots were scanned by a densitometer and analyzed by image quantification software (ImageJ, NIH, USA). The relative density versus control ratio (RD/C) was estimated using Graph Pad Prism Program (GraphPad). Quantitative data were analyzed statistically using a student's t-test and expressed as ± standard deviation. A value of p<0.05 was considered significant.
The western blot data for MMP-9 from three separate experiments were analyzed by densitometry and the results are shown in FIG. 5C. Values are expressed as the Relative Density versus control ratio (RD/C)± standard deviation of 3 blots.

A further assay relates to E-cadherin fragment. In words: E-cadherin shedding, western blot of conditioned media. The class given is cell-based, rat. Conditions: co-cultured with TGFβ, 6 day treatment. The protocol:
as §1
To determine whether TGFβ treatment of the rat lens results in an induction of E-cadherin shedding and whether this can be modulated by MMPIs, previously concentrated conditioned media was obtained from the 6 day treatment groups outlined earlier, and subjected to western blot analyses using an antibody specific for extracellular domain of E-cadherin, and used in previous studies to detect the presence of soluble E-cadherin fragments. […]

A further assay deals with E-cadherin mRNA. Kind of assay: E-cadherin mRNA in lens epithelium by LCM and RT-QPCR. It counts as cell-based, rat. The following applies: 6 day treatment; for E-cadherin mRNA level in lens epithelium versus TGFβ alone, FIG. 6B / E-cadherin mRNA level in lens epithelium versus controls, FIG. 6B: co-treated with TGFβ. As to the method: E-cadherin mRNA expression in the rat lens epithelial region was determined for lenses from different treatment groups, TGF-β, TGF-β plus GM6001 (25 μM), TGF-β plus MMPI-2/9 or control (6 day treatment time), using Real time quantitative PCR, (RT-QPCR). For these experiments, cryostat sections of lenses were subjected to Laser Capture Microdissection (LCM) in order to specifically isolate the cells. LCM was used to further ensure that cells of the subcapsular plaques were obtained and not left adherent to the underlying fiber cell mass, which may have occurred with manual dissection. Following treatment, lenses were placed in a cryostat mould containing Tissue-Tek OCT (Sakura Finetek Torrance, Calif.), and frozen on dry ice then stored at −70° C. The frozen tissue was then sectioned at 5-8 μm in a cryostat, mounted on non-coated clean glass slides, and stored again at −70° C. Immediately before Laser Capture Microdissection (LCM), the frozen sections were thawed for 10 seconds and then stained with HistoGene™LCM Frozen Section Staining kit (Arcturus, Mountain View, Calif.) using the protocol provided with strict adherence to RNAse-free conditions. The slides were then dried for 5 minutes after which LCM of the tissue was completed within two hours. LCM was then performed using the PixCell II (Arcturus), as described by others. The HistoGene stain allowed for the identification of the general morphology of the epithelium. Cells from the epithelium of the lens were then captured on CapSure Macro LCM Caps (Arcturus) using the PixCell II LCM Microscope (Arcturus) with a minimal beam diameter of 7.5 μrm. Total cellular RNA was then extracted from lifted cells using a PicoPure™ RNA Isolation kit (Arcturus Engineering Inc). Purified RNA was analyzed both qualitatively and quantitatively using an Agilent 2100 Bioanalyser (Agilent Technologies, Foster City, Calif., USA). Standard 20 μl reverse transcription reactions were preformed (SuperScript II, Life Technologies). The quality of the recovered cDNA was measured using a microfluidic gel analyzer (Agilent Technologies). E-Cadherin gene expression from recovered cDNA was analyzed using RT-PCR using a 96 well TaqMan optical reaction plate format on an ABI Prism 7700 sequence detection system (Applied Biosystems, Foster City, Calif., USA). RNA was normalized to 18S for each reaction. Each 25 μl PCR reaction (including controls) contained TaqMan Universal master mix, gene-specific forward and reverse primers (Mobix, Hamilton), and probes for target and endogenous control genes (Applied Biosystems). Serial dilutions (1-5 fold) of standard samples were set up in separate wells in duplicate, for both 18S and E-cadherin gene targets. Standard and unknown samples were added in a volume of 5 μl. Thermal cycling parameters consisted of the following: 2 minutes at 50° C., 10 minutes at 95° C. followed by 40 cycles of 15 seconds at 95° C. and 1 minute at 60° C. The number of target gene copies was calculated from a standard curve generated in parallel with each batch of samples. A linear relationship was detected over at least five orders of magnitude. In all experiments, the correlation coefficient was between 0.997 and 0.986. […] All PCR for E-cadherin cDNA quantification were performed using standard cDNA dilution curves. Quantitative data were analyzed statistically using a student's t-test and expressed as ±standard deviation. […]

For assay [4], the system named is TGFβ-induced rat lens cataract. In words: Optical analysis (BVD error) in ex-vivo TGFβ-induced rat lens cataract model.
[5] abbreviates: TGFβ 2 ng/ml plus 25 μM test substance, 6 days.

Entries after “also recorded” stand apart in the source; their conditions may differ.

For `CNC(=O)[C@H](Cc1c[nH]c2ccccc12)NC(=O)[C@@H](CC(=O)NO)CC(C)C` [GM6001], the “Subcapsular plaques / opacities, FIG. 4” value in assay [1] (co-cultured with TGFβ 2 ng/mL, 25 μM) is recorded as “remained devoid of opacities”. Further, the “αSMA immunoreactivity in lens sections, FIG. 4” value in assay [2] (25 μM) was “no observable immunoreactivity to αSMA”. The “Levels of gelatinolytic bands in conditioned media, FIG. 5A” value in assay [3] is on record as “reduced levels of all gelationolytic bands”. Besides, in the assay on MMP-2, the “MMP-2 protein in conditioned media (western blot), FIG. 5B” value is “undetectable levels, similar to controls”. In addition, the “MMP-9 protein in conditioned media (western blot, densitometry), FIG. 5B,C” value in the assay with MMP-9 is on record as “significant reduction (**P<0.001); also recorded: significantly attenuated”. Besides, the “E-cadherin fragment in conditioned media, FIG. 6A” value in the assay with E-cadherin fragment is on record as “Suppression in the levels of the E-adherin fragment”. For the same molecule, the “E-cadherin mRNA level in lens epithelium versus TGFβ alone, FIG. 6B” value in the assay with E-cadherin mRNA was “significantly higher than those treated with TGFβ alone”. In addition, the “E-cadherin mRNA level in lens epithelium versus controls, FIG. 6B” value in the assay with E-cadherin mRNA is on record as “significantly higher than that of controls”. For the same molecule, the “BVD error versus control lenses, FIG. 3” value in assay [4] (TGFβ 2 ng/ml plus 10 μM test substance, 6 days) is reported as “significantly different from control lenses”; in assay [4] (TGFβ 2 ng/ml plus 15 μM test substance, 6 days), “significantly different from control lenses”; in assay [4] (TGFβ 2 ng/ml plus 20 μM test substance, 6 days) it was “not significantly different from the control lenses”; in assay [4] (setting [5]), “not significantly different from the control lenses”. In assay [4] (TGFβ 2 ng/ml plus 10, 15, 20, 25 μM, 6 days), the “Dosage effect on TGFβ-induced BVD error” value is given as “decrease in BVD error as the GM6001 concentration increases to 25 μM”. The “BVD error (back vertex variability), FIG. 2” value in assay [4] (day 6, lenses co-treated with TGF-β and GM6001, compared with TGF-β treated groups) is “both the TGF-β treated groups of lenses exhibited a significantly larger BVD error than the control group or the GM6001 co-treated lenses”.
With `O=C(NO)[C@@H](Cc1ccccc1)NS(=O)(=O)c1ccc(-c2ccccc2)cc1` [MMPI-2/9, (2R)-[(4-Biphenylylsulfonyl)amino]-N-hydroxyl-3-phenylpropionamide], the “Subcapsular plaques / opacities, FIG. 4” value in assay [1] (co-cultured with TGF-β) is recorded as “remained devoid of opacities”. For the same molecule, the “αSMA immunoreactivity in lens sections, FIG. 4” value in assay [2] (inhibitor) is given as “no observable immunoreactivity to αSMA”. For the same molecule, the “Levels of gelatinolytic bands in conditioned media, FIG. 5A” value in assay [3] is recorded as “reduced levels of all gelationolytic bands”. Further, the “MMP-2 protein in conditioned media (western blot), FIG. 5B” value in the assay on MMP-2 was “undetectable levels, similar to controls”. The “MMP-9 protein in conditioned media (western blot, densitometry), FIG. 5B,C” value with MMP-9 was “significant attenuation of MMP-9”. Also, in the assay on E-cadherin fragment, the “E-cadherin fragment in conditioned media, FIG. 6A” value is listed as “undetectable”. In addition, in the assay with E-cadherin mRNA, the “E-cadherin mRNA level in lens epithelium versus TGFβ alone, FIG. 6B” value was “significantly higher than those treated with TGFβ alone” and the “E-cadherin mRNA level in lens epithelium versus controls, FIG. 6B” value is recorded as “significantly higher than that of controls”.
Regarding `CNC(=O)[C@H](Cc1c[nH]c2ccccc12)NC(=O)[C@H](CC(C)C)NC(=O)OC(C)(C)C` [negative control for GM6001, N-t-Butoxycarbonyl-L-leucyl-L-tryptophan Methylamide], the “BVD error versus control lenses, FIG. 3” value in assay [4] (setting [5]) is given as “significantly different from the controls”.

B1: TGFβ: TGFβ2 (R&D Systems), growth factor used to induce subcapsular cataract in cultured rat lenses (protein, UniProt P61812 303-414, looked up)
Transforming growth factor …: ALDAAYCFRNVQDNCCLRPLYIDFKRDLGWKWIHEPKGYNANFCAGACPYLWSSDTQHSRVLSLYNTINPEASASPCCVSQDLEPLTILYYIGKTPKIEQLSNMIVKSCKCS
B1: the “MMP-9 in conditioned media versus control, FIG. 5C” value in the assay with MMP-9 (TGFβ 2 ng/ml alone) is given as “significant upregulation (*P<0.001)”. In addition, the “Suppression of E-cadherin mRNA in plaque tissue versus normal lens epithelium” value in the assay with E-cadherin mRNA (TGFβ alone) was approximately 4 fold. In addition, in assay [4] (TGFβ alone, 6 days), the “BVD error versus controls” value is “statistically greater than in controls”.

The values are drawn from patent US20080187572A1, “Matrix Metalloproteinase Inhibitors of Tgfb-Induced Subcapsular Cataract Formation” (McMaster University, priority 2005, published 2008).
